Results taken from patent publication US20260053836A1, “CHRONIC WOUND HEALING COMPOSITION AND APPLICATION THEREOF” (priority 2019, published 2026).

Key:
Staphylococcus aureus = details: Guillermo et al., 1999; cited from earlier work
HaCaT cells = assay: Cell migration assay of HaCaT cells in high glucose culture; assay type: cell-based, human; details: high glucose (25 mM), 48 hours, control group taken as 1
Procedure: Human dermal fibroblasts (HDF cells) or human keratinocytes (HuCaT cells) were cultured in a humid incubator at 37° C. in an environment of 5% carbon dioxide and […] and placed in Dulbecco's modified Eagle's medium (DMEM) supplemented with glucose, 10% fetal bovine serum, 100 IU/mL penicillin, 100 μg/mL streptomycin, 2 mM sodium pyruvate and 1% nonessential amino acids (NEAA). The medium was changed every two days. For subculture, cells were harvested and re-cultured at a 1:10 dilution after exposure to 0.1% Trypsin-EDTA mixture. The cells used in the study ranged from 12 to 40 passages. 24 hours before drug treatment, cells were seeded and left for 24 hours. The control group was maintained in the medium and […]. Under this culture condition, cell growth and differentiation are not affected.
HaCaT cells were cultured at 1×10^5 with addition of 25 mM glucose in a 24-well culture dish for 48 hours, and the following drugs were added to observe the cell migration state: • Con: the control group; • BO 18.8 μM+A 16.0 μM; • BSG 14.2 μM+A 16.0 μM; • BO 18.8 μM+BSG 14.2 μM; • All: A 16.0 μM+BO 18.8 μM+BSG 14.2 μM.

## C[C@@H]1O[C@@H](O[C@@H]2[C@@H](O)[C@H](OCCc3ccc(O)c(O)c3)O[C@H](CO)[C@H]2OC(=O)/C=C/c2ccc(O)c(O)c2)[C@H](O)[C@H](O)[C@H]1O [Acteosides, Acteoside]
Staphylococcus aureus
  antibacterial efficacy: good antibacterial efficacy

## CC1(C)C2CCC1(C)C(O)C2 (stereo not drawn) [BO, Borneal]
HaCaT cells
  cell migration: no promoting effect

## O=C(O)c1cc(O)c2c(c1)[O][Bi]([OH])[O]2 [BSG, Bismuth subgallate]
HaCaT cells
  cell migration: no promoting effect
